Source: paper PMC7316778 (Nature Communications, 2020)
Values joined by “and” are separate entries in the source; they are usually repeats but may differ in a detail not shown here. Equal values may be shown once. Read-outs that look alike come from different tables or passages of the source.

Tests used:
Experiment in all cases: SelectScreen kinase assay
TNK1 = molecular target: T1, TNK1 (Homo sapiens, UniProt Q13470)
T1 sequence (Q13470 1-666): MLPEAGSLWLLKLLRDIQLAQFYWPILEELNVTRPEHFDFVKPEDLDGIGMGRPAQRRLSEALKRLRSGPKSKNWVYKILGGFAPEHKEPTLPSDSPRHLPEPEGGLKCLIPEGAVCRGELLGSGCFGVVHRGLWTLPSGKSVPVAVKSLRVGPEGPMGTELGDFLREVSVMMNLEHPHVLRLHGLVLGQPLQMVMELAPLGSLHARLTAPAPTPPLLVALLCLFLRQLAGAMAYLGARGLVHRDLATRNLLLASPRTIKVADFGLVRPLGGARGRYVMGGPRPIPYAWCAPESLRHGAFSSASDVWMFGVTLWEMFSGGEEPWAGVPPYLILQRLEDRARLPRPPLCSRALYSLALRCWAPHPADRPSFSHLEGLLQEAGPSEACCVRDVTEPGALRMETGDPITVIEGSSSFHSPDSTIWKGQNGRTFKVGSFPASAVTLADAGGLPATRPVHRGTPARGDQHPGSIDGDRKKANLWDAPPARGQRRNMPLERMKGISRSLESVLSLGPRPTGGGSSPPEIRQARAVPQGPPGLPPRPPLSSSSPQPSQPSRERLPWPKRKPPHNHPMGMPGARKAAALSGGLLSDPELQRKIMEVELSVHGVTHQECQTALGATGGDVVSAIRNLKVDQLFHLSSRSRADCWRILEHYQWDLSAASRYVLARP
Description: (§1) Selectivity profiling assays were performed by the Invitrogen SelectScreen™ Services. […] The concentration of ATP was selected to be equal to the KM, unless indicated otherwise.

FES (FPS) = FES (FPS) (Homo sapiens, UniProt P07332)
FES (FPS), sequence (P07332 whole entry): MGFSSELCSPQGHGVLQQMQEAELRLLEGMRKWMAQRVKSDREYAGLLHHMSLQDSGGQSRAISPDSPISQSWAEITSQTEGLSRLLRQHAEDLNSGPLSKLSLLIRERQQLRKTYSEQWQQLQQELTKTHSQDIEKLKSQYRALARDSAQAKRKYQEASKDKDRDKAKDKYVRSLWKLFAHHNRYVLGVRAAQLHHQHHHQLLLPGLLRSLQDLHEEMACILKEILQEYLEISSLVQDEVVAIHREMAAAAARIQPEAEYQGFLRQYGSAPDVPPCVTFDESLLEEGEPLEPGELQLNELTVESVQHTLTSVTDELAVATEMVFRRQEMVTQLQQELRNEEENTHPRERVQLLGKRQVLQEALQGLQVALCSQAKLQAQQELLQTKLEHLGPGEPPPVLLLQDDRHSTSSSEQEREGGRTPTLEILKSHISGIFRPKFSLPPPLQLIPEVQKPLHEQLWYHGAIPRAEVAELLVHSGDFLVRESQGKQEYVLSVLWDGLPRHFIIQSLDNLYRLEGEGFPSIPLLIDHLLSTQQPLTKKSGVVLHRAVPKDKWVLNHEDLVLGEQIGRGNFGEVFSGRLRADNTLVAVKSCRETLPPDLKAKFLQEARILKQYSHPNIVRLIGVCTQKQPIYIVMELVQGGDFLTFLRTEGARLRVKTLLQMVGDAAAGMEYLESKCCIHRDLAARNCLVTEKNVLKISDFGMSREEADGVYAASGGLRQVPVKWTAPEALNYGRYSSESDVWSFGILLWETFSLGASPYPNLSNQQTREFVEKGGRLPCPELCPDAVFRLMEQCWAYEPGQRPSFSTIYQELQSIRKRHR
Description: as §1

PRKCH (PKC eta) = PRKCH (PKC eta) (Homo sapiens, UniProt P24723); details: 1 h, 1 μM WEL028, 1 h preincubation
Description: as §1

TYRO3 (RSE) = molecular target: T2, TYRO3 (RSE) (Homo sapiens, UniProt Q06418)
T2 sequence (Q06418 41-890): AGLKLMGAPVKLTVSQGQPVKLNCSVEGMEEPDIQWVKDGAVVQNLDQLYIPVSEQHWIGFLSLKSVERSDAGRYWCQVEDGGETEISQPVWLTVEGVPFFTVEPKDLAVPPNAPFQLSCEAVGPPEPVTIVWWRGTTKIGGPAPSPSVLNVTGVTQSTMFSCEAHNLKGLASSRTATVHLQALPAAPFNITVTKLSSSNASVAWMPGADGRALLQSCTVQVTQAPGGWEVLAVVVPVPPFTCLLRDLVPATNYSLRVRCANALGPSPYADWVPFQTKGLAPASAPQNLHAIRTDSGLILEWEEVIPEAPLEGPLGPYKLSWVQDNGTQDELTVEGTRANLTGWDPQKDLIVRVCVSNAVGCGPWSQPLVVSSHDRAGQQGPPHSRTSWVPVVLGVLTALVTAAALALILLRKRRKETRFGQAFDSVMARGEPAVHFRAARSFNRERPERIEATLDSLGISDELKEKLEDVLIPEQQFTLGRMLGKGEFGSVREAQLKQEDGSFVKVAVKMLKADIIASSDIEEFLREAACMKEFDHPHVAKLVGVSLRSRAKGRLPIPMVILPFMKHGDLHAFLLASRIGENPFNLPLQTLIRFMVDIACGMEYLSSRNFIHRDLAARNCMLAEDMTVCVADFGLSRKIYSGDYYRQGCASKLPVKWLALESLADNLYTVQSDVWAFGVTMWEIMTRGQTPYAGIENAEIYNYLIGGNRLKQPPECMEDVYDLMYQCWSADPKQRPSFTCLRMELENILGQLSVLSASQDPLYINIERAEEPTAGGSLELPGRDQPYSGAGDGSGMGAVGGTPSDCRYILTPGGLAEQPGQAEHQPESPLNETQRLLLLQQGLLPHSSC
Description: as §1

CAMK2D (CaMKII delta) = CAMK2D (CaMKII delta) (Homo sapiens, UniProt Q13557)
Description: as §1

PRKCN (PKD3) = PRKCN (PKD3) (Homo sapiens, UniProt O94806)
Description: as §1

FGR = FGR (Homo sapiens, UniProt P09769)
FGR, sequence (P09769 whole entry): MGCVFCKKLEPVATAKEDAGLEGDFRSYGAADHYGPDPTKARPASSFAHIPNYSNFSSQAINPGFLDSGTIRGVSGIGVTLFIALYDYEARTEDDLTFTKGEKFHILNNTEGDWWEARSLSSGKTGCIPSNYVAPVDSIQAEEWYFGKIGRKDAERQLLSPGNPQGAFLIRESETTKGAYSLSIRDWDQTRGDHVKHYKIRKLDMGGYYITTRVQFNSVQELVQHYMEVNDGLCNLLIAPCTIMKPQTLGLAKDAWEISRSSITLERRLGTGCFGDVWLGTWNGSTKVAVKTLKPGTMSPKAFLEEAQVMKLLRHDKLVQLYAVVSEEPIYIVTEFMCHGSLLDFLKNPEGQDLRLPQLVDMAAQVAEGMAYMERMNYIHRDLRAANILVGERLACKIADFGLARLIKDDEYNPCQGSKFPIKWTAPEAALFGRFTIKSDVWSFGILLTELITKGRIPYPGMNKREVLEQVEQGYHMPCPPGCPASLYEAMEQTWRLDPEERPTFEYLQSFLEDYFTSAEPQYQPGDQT
Description: as §1

LTK (TYK1) = LTK (TYK1) (Homo sapiens, UniProt P29376)
LTK (TYK1), sequence (P29376 17-864): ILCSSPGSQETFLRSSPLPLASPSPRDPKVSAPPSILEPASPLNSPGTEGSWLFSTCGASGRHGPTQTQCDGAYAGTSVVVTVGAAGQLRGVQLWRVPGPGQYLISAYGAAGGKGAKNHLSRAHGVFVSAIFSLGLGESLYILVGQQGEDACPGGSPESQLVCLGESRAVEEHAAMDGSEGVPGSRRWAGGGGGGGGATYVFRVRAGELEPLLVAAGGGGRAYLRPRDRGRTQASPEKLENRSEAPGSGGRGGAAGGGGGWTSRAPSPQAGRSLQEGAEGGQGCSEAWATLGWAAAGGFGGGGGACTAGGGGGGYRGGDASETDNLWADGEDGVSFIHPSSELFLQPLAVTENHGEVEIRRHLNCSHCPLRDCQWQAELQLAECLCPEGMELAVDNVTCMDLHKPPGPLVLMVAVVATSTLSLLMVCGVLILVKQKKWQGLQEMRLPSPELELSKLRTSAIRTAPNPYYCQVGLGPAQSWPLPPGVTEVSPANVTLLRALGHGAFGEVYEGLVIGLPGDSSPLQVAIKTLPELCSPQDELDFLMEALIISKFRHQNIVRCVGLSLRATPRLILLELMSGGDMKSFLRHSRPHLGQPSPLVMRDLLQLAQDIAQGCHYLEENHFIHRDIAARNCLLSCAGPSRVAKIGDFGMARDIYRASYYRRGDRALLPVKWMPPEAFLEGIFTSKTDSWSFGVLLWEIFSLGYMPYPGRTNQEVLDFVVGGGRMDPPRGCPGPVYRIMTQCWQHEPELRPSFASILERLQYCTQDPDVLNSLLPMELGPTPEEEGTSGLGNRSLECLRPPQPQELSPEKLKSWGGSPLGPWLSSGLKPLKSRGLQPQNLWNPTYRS
Description: as §1

PTK2 (FAK) = PTK2 (FAK) (Homo sapiens, UniProt Q05397)
PTK2 (FAK), sequence (Q05397 whole entry, species assumed): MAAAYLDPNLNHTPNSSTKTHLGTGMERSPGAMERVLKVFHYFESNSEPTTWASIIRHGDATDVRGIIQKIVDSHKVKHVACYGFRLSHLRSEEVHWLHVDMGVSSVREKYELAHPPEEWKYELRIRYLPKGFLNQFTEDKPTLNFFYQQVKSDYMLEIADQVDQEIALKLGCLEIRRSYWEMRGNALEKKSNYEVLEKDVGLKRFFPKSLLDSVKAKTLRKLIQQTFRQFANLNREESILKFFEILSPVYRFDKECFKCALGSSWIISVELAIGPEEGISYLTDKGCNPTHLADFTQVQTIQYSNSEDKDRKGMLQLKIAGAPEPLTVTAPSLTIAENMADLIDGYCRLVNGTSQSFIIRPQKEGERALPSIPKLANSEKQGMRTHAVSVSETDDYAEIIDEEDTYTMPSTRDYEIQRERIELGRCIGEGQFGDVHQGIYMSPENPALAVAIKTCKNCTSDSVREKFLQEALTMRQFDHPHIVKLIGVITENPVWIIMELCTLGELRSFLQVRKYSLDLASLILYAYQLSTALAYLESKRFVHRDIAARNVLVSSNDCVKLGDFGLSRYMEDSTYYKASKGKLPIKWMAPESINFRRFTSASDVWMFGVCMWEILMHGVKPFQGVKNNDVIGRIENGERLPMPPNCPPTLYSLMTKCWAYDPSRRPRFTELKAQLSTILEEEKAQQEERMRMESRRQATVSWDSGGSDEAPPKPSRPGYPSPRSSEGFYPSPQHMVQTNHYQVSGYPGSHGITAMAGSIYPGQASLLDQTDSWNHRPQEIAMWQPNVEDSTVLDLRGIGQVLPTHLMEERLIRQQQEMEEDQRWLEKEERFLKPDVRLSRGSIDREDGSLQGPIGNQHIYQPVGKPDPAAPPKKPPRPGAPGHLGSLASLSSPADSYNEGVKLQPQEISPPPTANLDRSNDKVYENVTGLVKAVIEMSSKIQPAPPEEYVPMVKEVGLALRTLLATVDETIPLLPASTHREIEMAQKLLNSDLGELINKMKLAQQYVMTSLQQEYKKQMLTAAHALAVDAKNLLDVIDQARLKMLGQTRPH
Description: as §1

STK16 (PKL12) = STK16 (PKL12) (Homo sapiens, UniProt O75716)
STK16 (PKL12), sequence (O75716 whole entry): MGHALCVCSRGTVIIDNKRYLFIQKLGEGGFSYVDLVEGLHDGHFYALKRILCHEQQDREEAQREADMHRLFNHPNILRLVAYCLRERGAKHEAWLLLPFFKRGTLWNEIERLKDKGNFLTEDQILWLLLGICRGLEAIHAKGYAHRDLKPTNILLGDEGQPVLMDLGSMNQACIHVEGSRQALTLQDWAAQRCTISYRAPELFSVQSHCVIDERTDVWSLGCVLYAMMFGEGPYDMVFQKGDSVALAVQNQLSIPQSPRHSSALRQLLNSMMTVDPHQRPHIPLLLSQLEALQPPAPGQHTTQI
Description: as §1

MAP4K1 (HPK1) = MAP4K1 (HPK1) (Homo sapiens, UniProt Q92918)
Description: as §1

LIMK2 = LIMK2 (Homo sapiens, UniProt P53671)
LIMK2, sequence (P53671 whole entry): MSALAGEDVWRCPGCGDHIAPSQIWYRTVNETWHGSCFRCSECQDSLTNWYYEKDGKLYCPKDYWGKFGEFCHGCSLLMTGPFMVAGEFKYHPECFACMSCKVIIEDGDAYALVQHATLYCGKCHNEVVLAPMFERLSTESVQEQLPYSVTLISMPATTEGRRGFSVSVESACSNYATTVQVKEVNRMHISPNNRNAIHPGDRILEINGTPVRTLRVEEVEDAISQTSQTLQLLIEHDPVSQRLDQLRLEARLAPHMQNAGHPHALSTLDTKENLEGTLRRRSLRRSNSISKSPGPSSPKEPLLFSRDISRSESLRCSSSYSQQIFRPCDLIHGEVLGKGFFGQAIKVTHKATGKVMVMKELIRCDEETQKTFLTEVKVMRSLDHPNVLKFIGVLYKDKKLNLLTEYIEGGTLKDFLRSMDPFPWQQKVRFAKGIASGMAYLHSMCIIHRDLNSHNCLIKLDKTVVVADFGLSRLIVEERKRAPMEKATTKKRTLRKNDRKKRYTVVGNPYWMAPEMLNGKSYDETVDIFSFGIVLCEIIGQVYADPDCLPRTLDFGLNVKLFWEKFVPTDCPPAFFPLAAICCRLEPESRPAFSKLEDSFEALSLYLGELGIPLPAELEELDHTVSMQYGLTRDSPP
Description: as §1

LYN A = LYN A (Homo sapiens, UniProt P07948)
LYN A, sequence (P07948 whole entry): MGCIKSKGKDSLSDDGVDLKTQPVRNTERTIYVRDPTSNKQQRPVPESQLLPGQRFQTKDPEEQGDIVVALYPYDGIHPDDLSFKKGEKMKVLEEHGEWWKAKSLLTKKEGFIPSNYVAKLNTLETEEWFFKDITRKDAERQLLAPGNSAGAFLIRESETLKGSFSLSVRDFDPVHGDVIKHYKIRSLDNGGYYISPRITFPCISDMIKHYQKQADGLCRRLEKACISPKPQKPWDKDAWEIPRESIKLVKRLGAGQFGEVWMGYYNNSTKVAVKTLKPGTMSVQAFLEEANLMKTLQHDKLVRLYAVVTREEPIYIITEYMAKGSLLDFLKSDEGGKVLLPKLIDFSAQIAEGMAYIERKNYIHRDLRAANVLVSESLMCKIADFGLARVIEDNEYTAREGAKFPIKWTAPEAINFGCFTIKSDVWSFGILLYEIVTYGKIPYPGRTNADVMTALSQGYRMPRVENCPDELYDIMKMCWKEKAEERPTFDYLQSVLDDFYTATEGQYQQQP
Description: as §1

PRKACB (PRKAC beta) = PRKACB (PRKAC beta) (Homo sapiens, UniProt P22694); details: for Inhibition at 1 µM (%): PRKACB (PRKAC beta), LanthaScreen Binding
Description: as §1

[1] = 1 h, 1 μM WEL028, 1 h preincubation
[2] = 1 µM, ZLYTE, ATP Km app, listed as WEL028, 1 µM
[3] = read-out: Inhibition at 1 µM (%), 1 µM, ZLYTE, ATP Km app

With C#CCOc1ccc(Nc2ncc(Cl)c(Nc3ccccc3NC(=O)C=C)n2)c(OC)c1 [Compound 6] the “Inhibition at 1 µM (%)” value (TNK1; 1 µM, ZLYTE, ATP Km app) was 41%, the inhibition at 1 µM (TNK1; 1 h) was 41% and the inhibition at 1 µM (TNK1; read-out: Inhibition at 1 µM (%)) was 41%. The inhibition at 1 µM (FES (FPS); [1]) was 15%, the “Inhibition at 1 µM (%)” value (FES (FPS); FES (FPS), 1 µM, ZLYTE, ATP Km app, listed as WEL028, 1 µM) was 17% and the inhibition at 1 µM (FES (FPS); read-out: Inhibition at 1 µM (%), FES (FPS), 1 µM, ZLYTE, ATP Km app) was 12%. For the same compound, the inhibition at 1 µM (PRKCH (PKC eta)) was -4%, the “Inhibition at 1 µM (%)” value (TYRO3 (RSE); [2]) was 6% and the inhibition at 1 µM (TYRO3 (RSE); [1]) was 5%. The inhibition at 1 µM (TYRO3 (RSE); [3]) was 4%, the inhibition at 1 µM (CAMK2D (CaMKII delta); [1]) was 8% and the “Inhibition at 1 µM (%)” value (CAMK2D (CaMKII delta); CAMK2D (CaMKII delta), 1 µM, ZLYTE, ATP Km app) was 15%. The inhibition at 1 µM (PRKCN (PKD3); [1]) was 31%, the inhibition at 1 µM (PRKCN (PKD3); read-out: Inhibition at 1 µM (%), PRKCN (PKD3), 1 µM, ZLYTE, ATP Km app) was 32% and the inhibition at 1 µM (FGR; [1]) was 10%. For the same compound, the “Inhibition at 1 µM (%)” value (FGR; FGR, 1 µM, ZLYTE, ATP Km app, listed as WEL028, 1 µM) was 12%, the inhibition at 1 µM (FGR; read-out: Inhibition at 1 µM (%), FGR, 1 µM, ZLYTE, ATP Km app) was 7% and the inhibition at 1 µM (LTK (TYK1); [1]) was 43%. For the same compound, the “Inhibition at 1 µM (%)” value (LTK (TYK1); LTK (TYK1), 1 µM, ZLYTE, ATP Km app, listed as WEL028, 1 µM) was 37%, the inhibition at 1 µM (LTK (TYK1); read-out: Inhibition at 1 µM (%), LTK (TYK1), 1 µM, ZLYTE, ATP Km app) was 48% and the IC50 (PTK2 (FAK)) was 0.398 µM. For the same compound, the “Inhibition at 1 µM (%)” value (PTK2 (FAK); [2]) was 79%, the inhibition at 10 µM (PTK2 (FAK); 1 h, log[inhibitor] (M) -5.00, ZLYTE, ATP Km app) was 90% and the inhibition at 3.31 µM (PTK2 (FAK); 1 h, log[inhibitor] (M) -5.48, ZLYTE, ATP Km app) was 88%. It also gave an inhibition at 1.12 µM (PTK2 (FAK); 1 h, log[inhibitor] (M) -5.95, ZLYTE, ATP Km app) of 78%, an inhibition at 0.372 µM (PTK2 (FAK); 1 h, log[inhibitor] (M) -6.43, ZLYTE, ATP Km app) of 46% and an inhibition at 0.123 µM (PTK2 (FAK); 1 h, log[inhibitor] (M) -6.91, ZLYTE, ATP Km app) of 26%. The inhibition at 0.0138 µM (PTK2 (FAK); 1 h, log[inhibitor] (M) -7.86, ZLYTE, ATP Km app) was 4%, the inhibition at 0.00151 µM (PTK2 (FAK); 1 h, log[inhibitor] (M) -8.82, ZLYTE, ATP Km app) was 4% and the Apparent fold selectivity (PTK2 (FAK); IC50 on that kinase divided by IC50 on FES^S700C) was 89 fold. For the same compound, the inhibition at 1 µM (PTK2 (FAK); [3]) was 77%, the “Inhibition at 1 µM (%)” value (STK16 (PKL12); 1 µM, LanthaScreen Binding, listed as WEL028, 1 µM) was 29% and the inhibition at 1 µM (STK16 (PKL12); [1]) was 32%. The inhibition at 1 µM (STK16 (PKL12); read-out: Inhibition at 1 µM (%), 1 µM, LanthaScreen Binding) was 35%, the inhibition at 1 µM (MAP4K1 (HPK1); [1]) was 17% and the inhibition at 1 µM (MAP4K1 (HPK1); read-out: Inhibition at 1 µM (%), MAP4K1 (HPK1), 1 µM, LanthaScreen Binding) was 16%. The inhibition at 1 µM (LIMK2; [1]) was -2%, the “Inhibition at 1 µM (%)” value (LIMK2; LIMK2, 1 µM, LanthaScreen Binding, listed as WEL028, 1 µM) was -5% and 1% and the inhibition at 1 µM (LYN A; [1]) was 5%. The “Inhibition at 1 µM (%)” value (LYN A; LYN A, 1 µM, ZLYTE, ATP Km app, listed as WEL028, 1 µM) was 6%, the inhibition at 1 µM (LYN A; read-out: Inhibition at 1 µM (%), LYN A, 1 µM, ZLYTE, ATP Km app) was 5% and the inhibition at 1 µM (PRKACB (PRKAC beta); [1]) was 8%. The “Inhibition at 1 µM (%)” value (PRKACB (PRKAC beta)) was 12% and the “Inhibition at 1 µM (%)” value (PRKACB (PRKAC beta); listed as WEL028, 1 µM) was 5%.
